Measured values published in patent US6492335B1, “Glycoconjugates from modified camptothecin derivatives (20-O-linkage)” (Bayer Aktiengesellschaft, priority 1996, dated 2002).
Several values for one entry are separate records, joined by “and”; a condition that tells them apart may be missing. Equal entries are not always repeated. Structures can show the parent of a compound that is named as a salt. Where two headings read alike, the source gives them in different places.

Legend:
[1] = test system: mouse bone marrow stem cells; assay: Inhibition of the CSF-induced proliferation of mouse bone marrow stem cells (colony formation); conditions: recombinant murine GM-CSF, 7 days
Experimental: Bone marrow cells were washed out of mice femurs. 10^5 cells were incubated at 37° C. and 7% CO2 in McCoy 5A medium (0.3% agar) together with recombinant murine GM-CSF (Genzyme; stem cell colony formation) and the substances (10^−4 to 100 μg/ml). 7 days later, the colonies (<50 cells) and clusters (17-50 cells) were counted.

[2] = In vivo inhibition of tumour growth in the nude mouse model; conditions: NMRI nu/nu, mouse, in vivo, ip; nude mice, i.p. on day 1, 2 and 3; read-out: Maximum tolerable dose (MTD)
Experimental: (§1) For all in vivo experiments for investigation of the inhibition of tumour growth athymic nude mice (NMRI nu/nu strain) were used. The selected large-cell lung carcinoma LXFL 529 was grown by serial passage in nude mice. The human origin of the tumour was confirmed by isoenzymatic and immunohistochemical methods.
(§2) The tumour was implanted subcutaneously into both flanks of 6 to 8 week old nu/nu nude mice. The treatment was started, depending on the doubling time, as soon as the tumours had reached a diameter of 5-7 mm. The mice were assigned to the treatment group and the control group (5 mice per group with 8-10 assessable tumours) by randomization. The individual tumours of the control group all grew progessively.
(§3) The size of the tumours was measured in two dimensions by means of a slide gauge. The tumour volume, which correlated well with the cell count, was then used for all evaluations. The volume was calculated according to the formula “length×breadth×breadth/2” ([a×b^2]/2, a and b represent two diameters at right angles).
(§4) The values of the relative tumour volume (RTV) were calculated for each individual tumour by dividing the tumour size on day X with the tumour size on day 0 (at the time of randomization). The mean values of the RTV were then used for the further evaluation.
(§5) The inhibition of the increase of the tumour volume (tumour volume of the test group/control group, T/C, in per cent) was the final measured value.
(§6) The administration of the compounds was carried out intraperitoneally (i.p.) on day 1, 2 and 3 after randomization.

[3] = test system: large-cell lung carcinoma LXFL 529; assay: as above; conditions: for Survival time: individual mice
Experimental: as §1, §2, §3, §4, §5, §6

[4] = test system: B16F10; assay: Growth inhibition test (MTT) for cytotoxic properties; type: cell-based, mouse
Experimental: (§7) The human large intestine cell lines SW 480 and HT 29 (ATCC No. CCL 228 and HBT 38) and the mouse melanoma cell line B16F10 were grown in Roux dishes in RPMI 1640 medium with addition of 10% FCS. They were then trypsinized and taken up in RPMI plus 10% FCS to a cell count of 50,000 cells/ml. 100 μl of cell suspension/well were added to a 96 microwell plate and incubated for 1 day at 37° C. in a CO2 incubator. A further 100 μl of RPMI Medium and 1 μl of DMSO containing the test substances were then added. The growth was checked after day 3 and day 6. To this end, 40 μl of MTT solution (3-(4,5-dimethylthiazol-2-yl)-2,5-diphenyltetrazoline bromide) having a starting concentration of 5 mg/ml of H2O were added to each microwell. Incubation was carried out for 5 hours in a CO2 incubator at 37° C. The medium was then aspirated and 100 μl of i-propanol/well were added. After shaking for 30 min with 100 μl of H2O, the extinction was measured at 540 nm using a Titertek Multiscan MCC/340 (Flow).
(§8) The cytotoxic action is indicated in Table 1 as the IC50 value in each case for the SW 480 and HT 29 and B16F10 cell lines: […]

[5] = test system: HT 29; assay: as above; type: cell-based, human
Experimental: as §7, §8

[6] = test system: SW 480; assay: as above; type: cell-based, human
Experimental: as §7, §8

[7] = 6.25 mg/kg/day i.p. on day 1, 2 and 3
[8] = 12.5 mg/kg/day (MTD) i.p. on day 1, 2 and 3
[9] = B16-F10, mouse melanoma cell line B16F10, MTT, read-out: IC50 B16F10
[10] = human large intestine cell line HT 29, MTT, read-out: IC50 HT 29
[11] = SW480, human large intestine cell line SW 480, MTT, read-out: IC50 SW 480

CCc1c2c(nc3ccccc13)-c1cc3c(c(=O)n1C2)COC(=O)[C@]3(O)CC [7-ethyl-camptothecin]
IC50, inhibition of the CSF-induced proliferation of mouse bone marrow stem cells [1]: 0.002 ng/mL

CC[C@@]1(O)C(=O)OCc2c1cc1n(c2=O)Cc2cc3c(N)cccc3nc2-1 [9-amino-camptothecin]
IC50, inhibition of the CSF-induced proliferation of mouse bone marrow stem cells [1]: 1 ng/mL

CCc1c2c(nc3ccccc13)-c1cc3c(c(=O)n1C2)COC(=O)[C@@]3(CC)OC(=O)[C@H](C)NC(=O)[C@H](CCCCNC(=S)Nc1ccc(OC2O[C@@H](C)[C@@H](O)[C@@H](OC)[C@@H]2O)cc1)NC(=S)Nc1ccc(OC2O[C@@H](C)[C@@H](O)[C@@H](OC)[C@@H]2O)cc1 (stereo partly drawn) [Example 1.1, 20(S)-7-Ethyl-20-O-{N^α, N^ε-bis-[O-(3-O-methyl-β-L-fucopyranosyl)-4-hydroxy-phenylamino-thiocarbony]-lysyl-alanyl}-camptothecin]
MTD at 3 days [2]: 12.5 mg/kg/day | Relative body weight on day 7 [3, 7]: 98 % of day 0 | Relative tumour volume on day 14 [3, 7]: 32 % of day 0 | Survival time [3, 7]: >21 days (4×) and 13 days | Relative body weight on day 7 [3, 8]: 95 % of day 0 | Relative tumour volume on day 14 [3, 8]: 0.1 % of day 0 | Survival time [3, 8]: >21 days | IC50 [4, 9]: 30 nM | IC50 [5, 10]: 10 nM | IC50 [6, 11]: 15 nM

CCc1c2c(nc3ccccc13)-c1cc3c(c(=O)n1C2)COC(=O)C3(CC)OC(=O)[C@@H](NC(=O)[C@H](CCCCN)NC(=S)Nc1ccc(OC2OC(C)C(O)C(OC)C2O)cc1)C(C)C (stereo partly drawn) [Example 1.5, 7-Ethyl-20-O-{N^α-[O-(3-O-methyl-β-L-fucopyranosyl)-4-hydroxyl-phenyl-amino-thiocarbonyl]-lysyl-valyl)-camptothecin, hydrochloride]
IC50 [4, 9]: 300 nM | IC50 [5, 10]: 60 nM | IC50 [6, 11]: 100 nM

CCC1(OC(=O)[C@H](C)NC(=O)[C@H](CCCCNC(=S)Nc2ccc(OC3O[C@@H](C)[C@@H](O)[C@@H](OC)[C@@H]3O)cc2)NC(=S)Nc2ccc(OC3O[C@@H](C)[C@@H](O)[C@@H](OC)[C@@H]3O)cc2)C(=O)OCc2c1cc1n(c2=O)Cc2cc3cc4c(cc3nc2-1)OCO4 (stereo partly drawn) [Example 2.1, 20(R,S)-10,11-Methylenedioxy-20-O-{N^α,N^ε-bis-[O-(3-O-methyl-β-L-fucopyranosyl)-4-hydroxy-phenylamino-thiocarbonyl]-lysyl-alanyl}-camptothecin]
IC50 [4, 9]: 15 nM | IC50 [5, 10]: 5 nM | IC50 [6, 11]: 7 nM

CCC1(OC(=O)C(C)NC(=O)[C@H](CCCCN)NC(=S)Nc2ccc(OC3OC(C)C(O)C(OCC(=O)O)C3O)cc2)C(=O)OCc2c1cc1n(c2=O)Cc2cc3cc4c(cc3nc2-1)OCO4 (stereo partly drawn) [Example 2.3, 20(S)-10,11-Methylenedioxy-20-O-{N^α-[O-(3-O-carboxymethyl-β-L-fucopyranosyl)-4-hydroxy-phenylamino-thiocarbonyl]-lysyl-alanyl}-camptothecin, hydrochloride]
IC50 [4, 9]: 9 nM | IC50 [5, 10]: 3 nM | IC50 [6, 11]: 6 nM

CC[C@@]1(OC(=O)[C@H](CC(C)C)NC(=O)[C@H](CCCCN)NC(=S)Nc2ccc(O[C@H]3O[C@@H](C)[C@@H](O)[C@@H](OC)[C@@H]3O)cc2)C(=O)OCc2c1cc1n(c2=O)Cc2cc3cc4c(cc3nc2-1)OCO4 [Example 2.4, 20(S)-10,11-Methylenedioxy-20-O-{N^α-[O-(3-O-methyl-β-L-fucopyranosyl)-4-hydroxy-phenylamino-thiocarbonyl]-lysyl-leucyl}-camptothecin, hydrochloride]
IC50 [4, 9]: 10 nM | IC50 [5, 10]: 3 nM | IC50 [6, 11]: 5 nM

CC[C@@]1(OC(=O)[C@H](C)NC(=O)[C@H](CCCCNC(=S)Nc2ccc(OC3O[C@@H](C)[C@@H](O)[C@@H](OC)[C@@H]3O)cc2)NC(=S)Nc2ccc(OC3O[C@@H](C)[C@@H](O)[C@@H](OC)[C@@H]3O)cc2)C(=O)OCc2c1cc1n(c2=O)Cc2cc3c(N)cccc3nc2-1 (stereo partly drawn) [Example 3.1, 20(S)-9-Amino-20-O-{N^α,N^ε-bis-[O-(3-O-methyl-β-L-fucopyranosyl)4-hydroxy-phenylamino-thiocarbonyl]-lysyl-alanyl}-camptothecin]
IC50 [4, 9]: 150 nM | IC50 [5, 10]: 8 nM | IC50 [6, 11]: 10 nM

CC[C@@]1(OC(=O)[C@H](C)NC(=O)[C@H](CCCCNC(=S)Nc2ccc(OC3O[C@@H](C)[C@@H](O)[C@@H](OC)[C@@H]3O)cc2)NC(=S)Nc2ccc(OC3O[C@@H](C)[C@@H](O)[C@@H](OC)[C@@H]3O)cc2)C(=O)OCc2c1cc1n(c2=O)Cc2c-1nc1ccccc1c2COC(=O)[C@H](C)NC(=O)[C@H](CCCCNC(=S)Nc1ccc(OC2O[C@@H](C)[C@@H](O)[C@@H](OC)[C@@H]2O)cc1)NC(=S)Nc1ccc(OC2O[C@@H](C)[C@@H](O)[C@@H](OC)[C@@H]2O)cc1 (stereo partly drawn) [Example 4.1, 20(S)-7-{N^α,N^ε-bis-[O-(3-O-Methyl-β-L-fucopyranosyl)-4-hydroxy-phenylamino-thiocarbonylmino-thiocarbonyl]-lysyl-alanyloxymethyl}-20-O-{N^α,N^ε-bis-[O-(3-O-methyl-β-L-fucopyranosyl)-4-hydroxy-phenylamino-thiocarbonyl]-lysyl-alanyl}-camptothecin]
IC50 ([4]; Mus musculus, B16-F10, read-out: IC50 B16F10): 300 nM | IC50 ([5]; Homo sapiens, HT-29, read-out: IC50 HT 29): 40 nM | IC50 ([6]; Homo sapiens, SW480, read-out: IC50 SW 480): 40 nM

CC[C@@]1(OC(=O)[C@H](CC(C)C)NC(=O)[C@H](CCCCN)NC(=S)Nc2ccc(O[C@H]3O[C@@H](C)[C@@H](O)[C@@H](OC)[C@@H]3O)cc2)C(=O)OCc2c1cc1n(c2=O)Cc2c-1nc1cc3c(cc1c2CN1CCN(C)CC1)OCCO3 [Example 5.1, 20(S)-7-[4-(Methylpiperazino)methy]-10,11-(ethylenedioxy)-20-O-{N^α-[O-(3-O-methyl-β-L-fucopyranosyl)4-hydroxy-phenylamino-thiocarbonyl-lysyl-leucyl}-camptothecin, hydrochloride]
IC50 [4, 9]: 200 nM | IC50 [5, 10]: 40 nM | IC50 [6, 11]: 70 nM

CCc1c2c(nc3ccc(O)cc13)-c1cc3c(c(=O)n1C2)COC(=O)C3(CC)OC(=O)[C@@H](NC(=O)[C@H](CCCCN)NC(=S)Nc1ccc(OC2OC(C)C(O)C(OC)C2O)cc1)C(C)C (stereo partly drawn) [Example 6.1, 7-Ethyl-10-hydroxy-20-O-{N^α-[O-methyl-β-L-fucopyranosyl)-4-hydroxy-phenylamino-thiocarbonyl]-lysyl-valyl}-camptothecin, hydrochloride]
IC50 [4, 9]: 3000 nM | IC50 [5, 10]: 200 nM | IC50 [6, 11]: 150 nM
